The assay has as its target CRBN-DDB1 (Homo sapiens (Human), UniProt Q96SW2). In words: Fluorescence polarization (FP) assay for compound ligand binding to CRBN-DDB1. The note with it: FP displacement of (−)-Thalidomide-Alexa Fluor or Pomalidomide-fluorescein probe; 400 nM CRBN-DDB1, 5 nM probe; Compounds of the Present Invention. The procedure:
Measuring compound ligand binding to CRBN-DDB1 was carried out using an established sensitive and quantitative in vitro fluorescence polarization (FP) based binding assay. […] Compounds were dispensed from serially diluted DMSO stock into black 384-well compatible fluorescence polarization plates using an Echo acoustic dispenser. Compound binding to CRBN-DDB1 was measured by displacement of either a (−)-Thalidomide-Alexa Fluor® or Pomalidomide-fluorescein conjugated probe dye. […] Matching control wells excluding CRBN-DDB1 were used to correct for background fluorescence. Plates were read on an Envision plate reader with appropriate FP filter sets. The corrected S (perpendicular) and P (parallel) values were used to calculate fluorescence polarization (FP) with the following equation: […]
For orientation: In fluorescence polarisation assays a small probe gives low polarisation when free and higher when bound to something large.

We go through 38 compounds from US20230279023A1, “N/O-Linked Degrons and Degronimers for Protein Degradation” (C4 Therapeutics, Inc., priority 2019, published 2023).

Chain of CRBN-DDB1 (Q96SW2 whole entry): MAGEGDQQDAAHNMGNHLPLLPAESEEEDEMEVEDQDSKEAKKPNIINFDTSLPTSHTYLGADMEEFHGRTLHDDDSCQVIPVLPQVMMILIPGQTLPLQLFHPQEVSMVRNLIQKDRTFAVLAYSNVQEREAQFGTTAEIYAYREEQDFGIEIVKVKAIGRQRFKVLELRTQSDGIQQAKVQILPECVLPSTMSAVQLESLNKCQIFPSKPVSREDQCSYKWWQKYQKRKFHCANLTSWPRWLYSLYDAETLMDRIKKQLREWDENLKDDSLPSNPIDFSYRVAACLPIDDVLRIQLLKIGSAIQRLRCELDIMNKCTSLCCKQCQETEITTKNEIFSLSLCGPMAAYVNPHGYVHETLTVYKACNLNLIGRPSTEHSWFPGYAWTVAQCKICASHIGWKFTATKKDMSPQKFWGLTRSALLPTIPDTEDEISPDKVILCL
Chain of CRBN-DDB1 (Q16531 whole entry partner): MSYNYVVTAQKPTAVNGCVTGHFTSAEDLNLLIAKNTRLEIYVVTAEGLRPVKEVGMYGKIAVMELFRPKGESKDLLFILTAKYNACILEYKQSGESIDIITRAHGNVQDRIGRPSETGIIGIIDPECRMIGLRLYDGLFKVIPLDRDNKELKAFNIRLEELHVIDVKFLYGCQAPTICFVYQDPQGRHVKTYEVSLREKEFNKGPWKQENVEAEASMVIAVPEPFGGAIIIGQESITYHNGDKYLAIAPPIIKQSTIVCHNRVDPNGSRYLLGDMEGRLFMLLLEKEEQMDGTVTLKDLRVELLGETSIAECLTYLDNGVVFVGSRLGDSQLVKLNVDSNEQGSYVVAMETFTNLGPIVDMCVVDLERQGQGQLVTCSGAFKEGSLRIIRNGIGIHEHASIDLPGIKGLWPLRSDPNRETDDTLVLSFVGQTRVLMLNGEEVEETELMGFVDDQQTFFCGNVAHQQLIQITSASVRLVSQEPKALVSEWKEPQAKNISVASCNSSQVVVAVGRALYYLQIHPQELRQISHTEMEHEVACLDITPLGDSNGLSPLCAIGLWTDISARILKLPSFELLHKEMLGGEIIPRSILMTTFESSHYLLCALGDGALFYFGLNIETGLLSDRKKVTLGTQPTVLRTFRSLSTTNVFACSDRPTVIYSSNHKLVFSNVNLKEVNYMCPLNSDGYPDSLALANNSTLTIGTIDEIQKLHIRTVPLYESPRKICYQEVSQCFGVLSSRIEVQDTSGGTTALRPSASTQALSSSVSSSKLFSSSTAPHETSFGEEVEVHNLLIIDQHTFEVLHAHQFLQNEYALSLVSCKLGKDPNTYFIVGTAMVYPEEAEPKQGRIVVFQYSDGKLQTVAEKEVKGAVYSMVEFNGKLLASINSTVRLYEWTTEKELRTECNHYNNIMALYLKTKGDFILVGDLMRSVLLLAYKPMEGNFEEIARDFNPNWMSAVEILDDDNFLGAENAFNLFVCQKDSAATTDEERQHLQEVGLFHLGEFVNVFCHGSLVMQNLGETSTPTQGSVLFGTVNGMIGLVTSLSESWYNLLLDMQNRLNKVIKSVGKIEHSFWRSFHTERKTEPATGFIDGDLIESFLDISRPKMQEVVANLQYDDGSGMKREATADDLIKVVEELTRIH

`COc1cc(Cl)ccc1NC1CCC(=O)NC1=O` (centres unmarked) [Compound 47] came in with a Kd of less than 10 µM.
Compound `COc1ccc(Cl)cc1NC1CCC(=O)NC1=O` (centres unmarked) [Compound 48] yielded a Kd of less than 10 µM.
`O=C1CCC(Nc2ccccc2Cl)C(=O)N1` (centres unmarked) [Compound 49] returned a dissociation constant (Kd) of less than 10 µM.
In turn, `Cc1ccccc1NC1CCC(=O)NC1=O` (centres unmarked) [Compound 50] returned a Kd of less than 10 µM.
`Cn1ccc2cc(NC3CCC(=O)NC3=O)ccc21` (centres unmarked) [Compound 51]: the Kd is less than 10 µM.
`COc1ccc(NC2CCC(=O)NC2=O)cc1` (centres unmarked) [Compound 52]: the dissociation constant (Kd) was less than 10 µM.
Regarding `O=C1CCC(Nc2ccccc2F)C(=O)N1` (centres unmarked) [Compound 53], the Kd was less than 10 µM.
For `O=C1CCC(Nc2c(F)cccc2Cl)C(=O)N1` (centres unmarked) [Compound 54] the value was less than 10 µM; for `O=C1CCC(Nc2ccccc2OC(F)F)C(=O)N1` (centres unmarked) [Compound 55], less than 10 µM; for `N#Cc1cccc(NC2CCC(=O)NC2=O)c1` (centres unmarked) [Compound 56], less than 10 µM.
The compound `CN(c1cccc(Br)c1)C1CCC(=O)NC1=O` (centres unmarked) [Compound 57] returned a Kd of less than 10 µM.
For `CN(c1cccc(C(F)(F)F)c1)C1CCC(=O)NC1=O` (centres unmarked) [Compound 58], the Kd is less than 10 µM.
For `CN(c1ccc(C(F)(F)F)cc1)C1CCC(=O)NC1=O` (centres unmarked) [Compound 59] the value was less than 10 µM; for `CN(c1ccc(Cl)c(Cl)c1)C1CCC(=O)NC1=O` (centres unmarked) [Compound 60], less than 10 µM; for `Cc1ccccc1N(C)C1CCC(=O)NC1=O` (centres unmarked) [Compound 61], less than 10 µM.
With `COc1c(Cl)cccc1NC1CCC(=O)NC1=O` (centres unmarked) [Compound 62], the Kd was less than 10 µM.
Take `O=C1CCC(Nc2cccc(N3CCOCC3)c2)C(=O)N1` (centres unmarked) [Compound 64]: the dissociation constant (Kd) is less than 10 µM.
For `Cc1cccc(NC2CCC(=O)NC2=O)c1C#N` (centres unmarked) [Compound 65] the value was less than 10 µM; for `CN1CCN(c2ccc(NC3CCC(=O)NC3=O)cc2)CC1` (centres unmarked) [Compound 66], less than 10 µM.
For the compound `O=C1CCC(Nc2ccc(N3CCOCC3)cc2)C(=O)N1` (centres unmarked) [Compound 67], the Kd is less than 10 µM.
As for `Cc1ccc(C#N)cc1NC1CCC(=O)NC1=O` (centres unmarked) [Compound 68], the Kd was more than 100 µM.
`COc1ccc(NC2CCC(=O)NC2=O)c(OC)c1` (centres unmarked) [Compound 70]: the dissociation constant Kd was less than 10 µM.
With `O=C1CCC(Nc2cccc3ccccc23)C(=O)N1` (centres unmarked) [Compound 77], the equilibrium dissociation constant (Kd) is less than 10 µM.
`CC(C)(C)OC(=O)N1CCc2cc(NC3CCC(=O)NC3=O)ccc2C1` (centres unmarked) [Compound 79] displayed a Kd of less than 10 µM.
For `CC(C)(C)OC(=O)N1CCC(c2ccc(NC3CCC(=O)NC3=O)cc2)CC1` (centres unmarked) [Compound 81] the value was less than 10 µM; for `CC(C)(C)OC(=O)N1CCN(c2cccc(NC3CCC(=O)NC3=O)c2)CC1` (centres unmarked) [Compound 82], less than 10 µM; for `O=C1CCC(Nc2ccc(C3CCNCC3)cc2)C(=O)N1` (centres unmarked) [Compound 85], less than 10 µM.
For `O=C1CCC(Nc2cccc(N3CCNCC3)c2)C(=O)N1` (centres unmarked) [Compound 86] the value was less than 10 µM.
For `CN(c1cccc(N2CCN(C(=O)OC(C)(C)C)CC2)c1)C1CCC(=O)NC1=O` (centres unmarked) [Compound 88] the value was less than 10 µM; for `CC(C)(C)OC(=O)n1cc(C#N)c(NC2CCC(=O)NC2=O)n1` (centres unmarked) [Compound 95], more than 100 µM.
For `N#Cc1c[nH]nc1NC1CCC(=O)NC1=O` (centres unmarked) [Compound 96], the Kd is more than 100 µM.
For `CN(C1COC1)C1CCC(=O)NC1=O` (centres unmarked) [Compound 97] the value was more than 100 µM.
Under `O=C1CCC(NC2CC(=O)N(c3ccccc3)C2)C(=O)N1` (centres unmarked) [Compound 99] stands more than 100 µM; under `CN(C1CNC1)C1CCC(=O)NC1=O` (centres unmarked) [Compound 101], more than 100 µM.
The compound `CN1CC(N(C)C2CCC(=O)NC2=O)C1` (centres unmarked) [Compound 102] came in with an equilibrium dissociation constant (Kd) of more than 100 µM.
As for `CN1CCC(N(C)C2CCC(=O)NC2=O)CC1=O` (centres unmarked) [Compound 106], the Kd is more than 100 µM.
For `CN(CC(=O)O)C1CCC(=O)NC1=O` (centres unmarked) [Compound 107] the value was more than 100 µM; for `CNC(=O)CN(C)C1CCC(=O)NC1=O` (centres unmarked) [Compound 109], more than 100 µM.

What is called Kd is a measure of binding affinity in units of concentration. High values mean lower affinity, low ones higher affinity.
